Reference: patent US10620188B2, “Using impedance-based cell response profiling to identify putative inhibitors for oncogene addicted targets or pathways” (ACEA Biosciences, Inc., priority 2002, dated 2020)

What was measured:
10T1/2 tva-H1047R = test: Impedance-based TCRP of 10T1/2 tva-H1047R cells expressing human p110α (H1047R); assay type: cell-based, mouse
Experimental: (§4) The cell index (CI) was normalized at time of compound addition.
A mouse fibroblast 10T1/2 expressing the cell-surface receptor TVA, which is specific for subgroup-A avian retroviruses was used. […] A549 is a human lung cancer cell line expressing wild-type p110α. T47D and BT20 are human breast cancer cell lines expressing mutant p110α (T47D) and p110α (P539R/H1047R), respectively.
(§5) Then the normal growth medium (10% FBS) was exchanged with medium containing 0% FBS. The cells were incubated for additional 5 hours before compound treatment. A PI3K inhibitor (PI103) at different concentrations in DMSO was added into wells following the incubation period. The cell status was monitored prior to and after the compound addition using xCelligence system (Roche applied sciences). […] Cell index of the cells treated with solvent DMSO control was used as baseline. The Cell index was normalized against the cell index values at a time point just before compound addition.

10T1/2 tva = test: Impedance-based TCRP of control cell line 10T1/2 tva; parameters: species or system mouse; conditions: 10T1/2 tva control cell line; from 0 to 10 uM
Experimental: as §4, §5

A549 = test: Impedance-based TCRP of A549 cells (wild-type p110α) to PI3K inhibitor; assay type: cell-based, human; conditions: A549 expressing wild-type p110α; serum starved 5 hour
Experimental: (§1) Cells were serum starved for 5 hour. The cell index was normalized at time of compound addition. At the indicated time point of treatment, increasing concentrations of PI103 (0-10 uM) was added to the cells and the cell responses were monitored.
(§2) Cell lines. A mouse fibroblast 10T1/2 expressing the cell-surface receptor TVA, which is specific for subgroup-A avian retroviruses was used. The cells were transformed by infection with human p110α (H1047R)-expressing avian retrovirus and are referred to as 10T1/2 tva-H1047R. A549 is a human lung cancer cell line expressing wild-type p110α. T47D and BT20 are human breast cancer cell lines expressing mutant p110α (T47D) and p110α (P539R/H1047R), respectively.
(§3) To test if the characteristic TCRP is specific to PI3K inhibition, we also test the cell responses in several other cell lines (FIG. 35). […] Such characteristic TCRP could be used for identifying or screening unknown biologically active agents which may act as PI3K inhibitors.

T47D = test: Impedance-based TCRP of T47D cells (mutant p110α) to PI3K inhibitor; assay type: cell-based; conditions: Homo sapiens, 10 min
Experimental: as §1, §2, §3

BT20 = test: Impedance-based TCRP of BT20 cells (p110α P539R/H1047R) to PI3K inhibitor; assay type: cell-based; conditions: Homo sapiens, BT-20, 10 min
Experimental: as §1, §2, §3

AKT phosphorylation = test: Western analysis of PI3K downstream signal in 10T1/2 tva-H1047R and 10T1/2 tva; assay type: cell-based, mouse; conditions: 10 uM; treated for 2 hours; serum starved 5 hours
Description: Cells were lysed and subject to Western analyses. […] Equal intensity of GAPDH bands indicated equal protein loading.

RBL-2H3 PDGFRβ = test: Impedance response of engineered RBL-2H3 PDGFRβ cells to PDGF stimulation and PDGFR inhibition; assay type: cell-based, rat; conditions: serum starved 2 hour, peak normalized CI response
Experimental: RBL-2H3 PDGFRβ cells were seeded at 20,000 cells per well of 96-well E-plate (Roche/ACEA). The cells were continuously monitored using the xCelligence system (Roche/ACEA). […] The cell index (CI) was normalized at time of compound addition. Time zero depicts the time point of treatment. […] The cell index (CI) was normalized at time of compound addition. Time zero depicts the time point of treatment.

RBL-2H3 = test: Impedance response of parental RBL-2H3 cells; assay type: cell-based, rat; conditions: RBL-2H3 parental
Experimental: Cell lines. RBL2H3-PDGFR is engineered rat basophilic cell line that expresses exogenous PDGFRβ. RBL2H3 is the parental cell line.
RBL2H3-PDGFR overexpressing PDGFRβ was constructed by Lenti viral transduction of RBL2H3. Both RBL2H3-PDGFR and RBL2H3 cells were seeded at 20,000 cells per well of 96-well E-plate (Roche/ACEA). The cells were continuously monitored using the xCelligence system (Roche/ACEA).
Cells were serum starved for 2 hour, then stimulated by addition of PDGF BB (0-50 ng/ml). […] Plotting the peak normalized CI response versus the corresponding log concentration allows for calculation of the EC50 (1.07 ng.mL) of PDGF acting on PDGFR in the engineered cell line.
This dose-dependent decease in the CI is specific to PDGFR inhibition.

H1993 = test: Impedance-based TCRP of Met addicted H1993 cells (xCelligence); assay type: cell-based, human; conditions: H1993; increasing concentrations
Experimental: Cells were treated with ACEA348 (0-10 uM) for 30 min.
as §4
The time-dependent cell response profiles (TCRP) were monitored prior to and after the compound addition using the xCelligence system (ACEA Biosciences/Roche applied sciences).
The Cell index was normalized against the cell index values at a time point just before compound addition. […] EC50 and IC50 of the Met inhibitor can be derived from the CI versus the corresponding log concentration of the inhibitor.

SK-MEL-28 = test: Impedance-based TCRP of SK-MEL-28, b-Raf (V600E) addicted melanoma cells; assay type: cell-based, human; conditions: SK-MEL-28; increasing concentrations
Experimental: (A) The impedance-based time-dependent cellular profiles (TCRPs) of SK-MEL28 in response to b-Raf inhibitor on xCelligence system (Roche/ACEA). […] The cell index (CI) was normalized at time of the compound addition. At the indicated time point of treatment (arrow), increasing concentrations of b-Raf inhibitor (from 0 to 10 uM) were added to the cells and the cell response was monitored. […] (B) EC50 of b-Raf derived from impedance-based TCRP.
as §4
Cell lines. […] The time-dependent cell response profiles (TCRP) were monitored prior to and after the compound addition using the xCelligence system (ACEA Biosciences/Roche applied sciences).
(§6) Kinase inhibitors including b-Raf inhibitors at different concentrations in DMSO were added into wells following the incubation period. The cell status was monitored prior to and after the compound addition using xCelligence system (Roche applied sciences). […] The Cell index was normalized against the cell index values at a time point just before compound addition.

C6 = test: Impedance-based TCRP of PDGFR addicted C6 glioma cells; assay type: cell-based, rat; conditions: C6; increasing concentrations
Experimental: as §4
Kinase inhibitors including PDGFR inhibitors at different concentrations in DMSO were added into wells following the incubation period. The cell status was monitored prior to and after the compound addition using xCelligence system (Roche applied sciences). […] The Cell index was normalized against the cell index values at a time point just before compound addition.
IC50 of the PDGFR inhibitor can be derived from the CI versus the corresponding log concentration of the inhibitor.

Colo-205 = test: Impedance-based TCRP of Colo-205 cells, b-Raf (V600E); assay type: cell-based, human; conditions: increasing concentrations
Experimental: (A) The impedance-based time-dependent cellular profiles (TCRPs) of colo205 in response to b-Raf inhibitor on xCelligence system (Roche/ACEA). […] The cell index (CI) was normalized at time of the compound addition. At the indicated time point of treatment (arrow), increasing concentrations of b-Raf inhibitor (from 0 to 10 uM) were added to the cells and the cell response was monitored. […] (B) IC50 of b-Raf derived from impedance-based TCRP.
as §4, §6

SH-SY5Y = test: Impedance-based TCRP of SH-SY5Y cells, mutant ALK (F1174L); assay type: cell-based, human; conditions: 10 uM
Description: The cell index (CI) was normalized at time of compound addition. […] DMSO was served as solvent control.
The cell index was normalized at time of compound addition. DMSO at the same dose was served as solvent control.
as §4

Compound: Oc1cccc(-c2nc(N3CCOCC3)c3oc4ncccc4c3n2)c1 [PI103]
- TCRP (Cell Index response) (10T1/2 tva-H1047R; 10T1/2 tva-H1047R in the presence of siRNA targeting human p110α, within 10 min of compound addition): no sharp decrease
- TCRP (Cell Index response) (10T1/2 tva-H1047R; 10T1/2 tva-H1047R, serum starved, from 0 to 10 uM): immediate decrease
- IC50 (10T1/2 tva-H1047R; Mus musculus, 5 h, read-out: IC50 (TCRP)): 89 nM
- TCRP (Cell Index response) (10T1/2 tva): did not show a clear dose response
- TCRP (Cell Index response) (A549): did not show clear dose response
- IC50 (T47D): 126 nM
- IC50 (BT20): 165 nM
- PI3K downstream signal (AKT phosphorylation), Western (AKT phosphorylation): efficiently inhibited

Compound: PDGF: PDGF BB, ligand used to stimulate PDGFRβ
- EC50 of PDGF acting on PDGFR (RBL-2H3 PDGFRβ): 1.07 ng·mL
- Cell Index response of parental cell line (RBL-2H3): did not show any response

Compound: COc1cc2ncnc(Nc3ccc(F)c(Cl)c3)c2cc1OCCCN1CCOCC1 [Gefitinib]
- TCRP (Cell Index response) (H1993): None of these inhibitors induced a TCRP similar to PF2341006
- TCRP (Cell Index response) (SK-MEL-28): did not affect CI changes that are significantly different from the negative control
- TCRP (Cell Index response) (C6): did not affect CI changes that are significantly different from the negative control
- TCRP (Cell Index response, cell growth) (Colo-205): did not inhibit Colo205 cell growth
- TCRP (Cell Index response) (SH-SY5Y): None trigged a TCRP representative to that trigger by ALK inhibitors
